MIC data for four molecules are collected here from patent US3974140A, “Ureidoacetamido-penicillins” (Bayer Aktiengesellschaft, priority 1970, dated 1976).

A value given as a limit tells only on which side of the number the result lay.

What all share (assay): MIC, liquid medium test tube series dilution test
In assay [1] the test system is Proteus vulg. 3400. The assay is classed as cell-based, Proteus vulgaris. To be noted: Proteus vulg. 3400, 24 hours, 37°C. Put shortly:
(§1)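 Liquid-medium tube serial dilution in complete nutrient medium, read after 24 h incubation at 37°C. MIC is the lowest concentration giving a non-turbid tube, expressed in units/ml.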

Assay [2] has as its system Proteus vulg. 1017. The assay is classed as cell-based, Proteus vulgaris. To be noted: Proteus vulg. 1017, 24 hours, 37°C. Put shortly:
as §1

The test system of assay [3] is Staph. aureus 1777 E. The assay is classed as cell-based, Staphylococcus aureus. Particulars: 24 hours, 37°C. The method in brief:
as §1

Assay [4] has as its system Staph. aureus 133. The format is cell-based, Staphylococcus aureus. To be noted: Staph. aureus 133, 24 hours, 37°C. The method in brief: as §1
Assay [5] relates to Klebsiella K 10. The format is cell-based. Particulars: Klebsiella K 10, 24 hours, 37°C. Put shortly: as §1
Assay [6] deals with E. coli 14. The assay is classed as cell-based. To be noted: E. coli 14, 24 hours, 37°C. The method in brief:
as §1

Assay [7] has as its system E. coli 183/58. The format is cell-based. Particulars: E. coli 183/58, 24 hours, 37°C. Put shortly:
as §1

The test system of assay [8] is Klebsiella 63. The format is cell-based. To be noted: Klebsiella 63, 24 hours, 37°C. Put shortly: as §1
Assay [9] has as its system Streptoc. faec. ATCC 9790. The format is cell-based. To be noted: Strep. faec. (Enterococcus) ATCC 9790, 24 hours, 37°C. The method in brief: as §1
Assay [10] has as its system E. coli C 165. The assay is classed as cell-based. Particulars: E. coli C 165, 24 hours, 37°C. Put shortly: as §1
The test system of assay [11] is E. coli A 261. The assay is classed as cell-based. Particulars: E. coli A 261, 24 hours, 37°C. Put shortly:
as §1

Assay [12] concerns Psdm. aerug. Bonn. The assay is classed as cell-based, Pseudomonas aerug. To be noted: 24 hours, 37°C. The method in brief: as §1
Assay [13] has as its system Psdm. aerug. Walter. The format is cell-based, Pseudomonas aerug. To be noted: 24 hours, 37°C. The method in brief: as §1

For the molecule `CCCCOC(=O)N(C)C(=O)N[C@@H](C(=O)N[C@@H]1C(=O)N2[C@@H]1SC(C)(C)[C@@H]2C(=O)O)c1ccccc1` [Example 98, Sodium D(-)-α-(3-n-butoxycarbonyl-3-methyl-ureido)-benzylpenicillin], the MIC in [1] is 25 units/ml; in [1] (listed as (B) of Example 28), 25 units/ml; in assay [2], 12.5 units/ml; in assay [2] (listed as (B) of Example 28) it was 12.5 units/ml; in [3], 200 units/ml; in assay [4] it was under 0.78 units/ml. The MIC in assay [4] (listed as (B) of Example 28) is reported as under 0.78 units/ml; in assay [5], 400 units/ml; in assay [6], 3.12 units/ml; in assay [6] (listed as (B) of Example 28), 3.12 units/ml; in assay [7] it was 6.25 units/ml; in assay [7] (listed as (B) of Example 28) it was 6.25 units/ml. Also, the MIC in [8] is 400 units/ml; in assay [9] it was 100 units/ml; in assay [10], 6.25 units/ml; in [10] (listed as (B) of Example 28), 6.25 units/ml; in assay [11] it was over 400 units/ml; in assay [12] it was 12.5 units/ml. The values for the MIC in assay [12] (listed as (B) of Example 28), in assay [13] and in [13] (listed as (B) of Example 28) were 12.5 units/ml, 25 units/ml and 25 units/ml, respectively.
Take `CC(=O)N(C)C(=O)NC(C(=O)N[C@@H]1C(=O)N2[C@@H]1SC(C)(C)[C@@H]2C(=O)O)c1cccs1` (stereo partly drawn) [Example 122, Sodium D,L-α-(3-acetyl-3-methyl-ureido)-α-thienyl(2)-methylpenicillin]: the MIC in assay [1] is recorded as 400 units/ml; in assay [2] it was 100 units/ml; in assay [3], 400 units/ml; in assay [4] it was 1.6 units/ml; in [5] it was 50 units/ml; in assay [6] it was 12.5 units/ml. For the same molecule, the MIC in assay [7] is on record as 200 units/ml; in assay [8], 100 units/ml; in assay [9] it was 100 units/ml; in assay [10] it was 50 units/ml; in [11] it was over 400 units/ml; in assay [12], 200 units/ml. The same molecule came in with an MIC in [13] of 400 units/ml.
Turning to `Cc1ccccc1C(=O)N(C)C(=O)N[C@@H](C(=O)N[C@@H]1C(=O)N2[C@@H]1SC(C)(C)[C@@H]2C(=O)O)c1ccccc1` [Example 129, Sodium D(-)-α-(3-[2-methylbenzoyl]-3-methyl-ureido)-benzylpenicillin], the MIC is 6.25 units/ml in assay [1]; 3.12 units/ml in assay [2]; 6.25 units/ml in assay [3]; under 0.78 units/ml in assay [4]; 6.25 units/ml in [5]; 0.78 units/ml in [6]. The MIC in [7] turned out to be 1.56 units/ml; in assay [8] it was 6.25 units/ml; in assay [9], 50 units/ml; in assay [10] it was 1.56 units/ml; in assay [11], 50 units/ml; in assay [12] it was 6.25 units/ml. The same molecule had an MIC in assay [13] of 12.5 units/ml.
For `CN(C(=O)N[C@@H](C(=O)N[C@@H]1C(=O)N2[C@@H]1SC(C)(C)[C@@H]2C(=O)O)c1ccccc1)C(=O)c1cccc(Cl)c1` [Example 117, Sodium D(-)-α-(3-m-chlorobenzoyl-3-methyl-ureido)-benzylpenicillin], the MIC is listed as 3.12 units/ml in [1]; 3.12 units/ml in assay [2]; 12.5 units/ml in [3]; 0.8 units/ml in assay [4]; 6.25 units/ml in assay [5]; under 0.78 units/ml in assay [6]. For the same molecule, the MIC was 1.56 units/ml in assay [7]; 12.5 units/ml in assay [8]; 50 units/ml in [9]; 1.56 units/ml in assay [10]; 50 units/ml in assay [11]; 12.5 units/ml in [12]. The molecule also displayed an MIC in assay [13] of 12.5 units/ml.
